Experimental data taken from ChEMBL document CHEMBL4715869, “N-(Pyrimidin-2-yl)-1,2,3,4-tetrahydroisoquinolin-6-amine Derivatives as Selective Janus Kinase 2 Inhibitors for the Treatment of Myeloproliferative Neoplasms” (J Med Chem, 2020).
Activity calls are given as the source filed them. The calls are words filed in the database; no cut-off is given here.

How the values were obtained:
[1] = system: Tyrosine-protein kinase JAK2 (Mus musculus), Q62120 [V617F]; experiment: Inhibition of JAK2 V617F mutant in mouse BAF3 cells assessed as decrease in STAT5 phosphorylation at 50 nM after 2 hrs by Western blot analysis; format: cell-based
Tyrosine-protein kinase JAK2 (Mus musculus), Q62120 [V617F], sequence (Q62120 as listed by the source): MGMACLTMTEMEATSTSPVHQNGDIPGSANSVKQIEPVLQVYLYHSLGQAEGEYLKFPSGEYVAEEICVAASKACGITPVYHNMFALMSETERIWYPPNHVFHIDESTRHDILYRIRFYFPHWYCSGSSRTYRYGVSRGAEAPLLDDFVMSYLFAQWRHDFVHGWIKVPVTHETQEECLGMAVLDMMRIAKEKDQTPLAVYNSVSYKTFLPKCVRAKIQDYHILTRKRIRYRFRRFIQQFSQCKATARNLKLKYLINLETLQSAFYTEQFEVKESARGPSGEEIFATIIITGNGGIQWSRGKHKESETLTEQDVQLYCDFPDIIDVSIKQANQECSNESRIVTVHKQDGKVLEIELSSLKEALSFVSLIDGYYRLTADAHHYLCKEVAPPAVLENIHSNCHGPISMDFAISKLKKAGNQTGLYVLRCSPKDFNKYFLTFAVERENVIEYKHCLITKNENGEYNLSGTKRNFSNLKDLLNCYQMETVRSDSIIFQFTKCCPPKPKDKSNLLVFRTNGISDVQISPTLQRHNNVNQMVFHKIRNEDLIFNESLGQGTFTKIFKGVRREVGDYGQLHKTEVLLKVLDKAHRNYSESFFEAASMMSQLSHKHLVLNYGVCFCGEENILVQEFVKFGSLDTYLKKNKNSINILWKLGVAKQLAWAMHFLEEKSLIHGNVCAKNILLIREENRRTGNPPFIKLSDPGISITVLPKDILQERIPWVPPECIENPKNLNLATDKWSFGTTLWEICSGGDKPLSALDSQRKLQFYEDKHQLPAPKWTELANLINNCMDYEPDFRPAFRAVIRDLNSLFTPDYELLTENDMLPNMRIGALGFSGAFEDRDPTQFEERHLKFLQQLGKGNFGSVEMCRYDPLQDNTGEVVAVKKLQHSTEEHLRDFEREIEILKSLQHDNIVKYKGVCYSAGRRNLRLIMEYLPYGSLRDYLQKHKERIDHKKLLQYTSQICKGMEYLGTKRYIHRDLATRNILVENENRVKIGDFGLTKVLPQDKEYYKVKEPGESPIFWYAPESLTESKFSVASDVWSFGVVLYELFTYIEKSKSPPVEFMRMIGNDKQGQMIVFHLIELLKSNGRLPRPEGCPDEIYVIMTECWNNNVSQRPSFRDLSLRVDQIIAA

[2] = Metabolic stability in rat liver microsomes assessed as half-life; format: ADME, Microsome
L02 = experiment: Cytotoxicity against human L02 cells assessed as reduction in cell viability incubated for 72 hrs by MTT assay; format: cell-based; conditions: L02, 72 h
BaF3 [3] = experiment: Antitumor activity against mouse BAF3 cells harboring JAK2 V617F mutant implanted in Balb/c mouse assessed as decrease in spleen weight at 30 mg/kg, po qd administered starting from day 4 to 20 and measured on day 25 relative to control; format: functional; set-up: scale not given: the % may be the effect or the level left; conditions: time 21 day
SET-2 [4] = experiment: Induction of apoptosis in human SET-2 cells assessed as early apoptotic cells at 0.2 uM incubated for 24 hrs by Annexin V/PI staining based flow cytometric analysis (reference value: 1.47 %); format: functional
SET-2 [5] = experiment: Induction of apoptosis in human SET-2 cells assessed as early apoptotic cells at 1.6 uM incubated for 24 hrs by Annexin V/PI staining based flow cytometric analysis (reference value: 1.47 %); format: functional
[6] = system: Receptor-type tyrosine-protein kinase FLT3 (Homo sapiens), P36888 [UNDEFINED MUTATION]; experiment: Inhibition of FLT3 ITD mutant in human MOLM13 cells assessed as residual activity at 100 nM relative to control; format: cell-based; conditions: MOLM-13
Receptor-type tyrosine-protein kinase FLT3 (Homo sapiens), P36888 [UNDEFINED MUTATION], sequence (P36888 whole entry, looked up, change not shown): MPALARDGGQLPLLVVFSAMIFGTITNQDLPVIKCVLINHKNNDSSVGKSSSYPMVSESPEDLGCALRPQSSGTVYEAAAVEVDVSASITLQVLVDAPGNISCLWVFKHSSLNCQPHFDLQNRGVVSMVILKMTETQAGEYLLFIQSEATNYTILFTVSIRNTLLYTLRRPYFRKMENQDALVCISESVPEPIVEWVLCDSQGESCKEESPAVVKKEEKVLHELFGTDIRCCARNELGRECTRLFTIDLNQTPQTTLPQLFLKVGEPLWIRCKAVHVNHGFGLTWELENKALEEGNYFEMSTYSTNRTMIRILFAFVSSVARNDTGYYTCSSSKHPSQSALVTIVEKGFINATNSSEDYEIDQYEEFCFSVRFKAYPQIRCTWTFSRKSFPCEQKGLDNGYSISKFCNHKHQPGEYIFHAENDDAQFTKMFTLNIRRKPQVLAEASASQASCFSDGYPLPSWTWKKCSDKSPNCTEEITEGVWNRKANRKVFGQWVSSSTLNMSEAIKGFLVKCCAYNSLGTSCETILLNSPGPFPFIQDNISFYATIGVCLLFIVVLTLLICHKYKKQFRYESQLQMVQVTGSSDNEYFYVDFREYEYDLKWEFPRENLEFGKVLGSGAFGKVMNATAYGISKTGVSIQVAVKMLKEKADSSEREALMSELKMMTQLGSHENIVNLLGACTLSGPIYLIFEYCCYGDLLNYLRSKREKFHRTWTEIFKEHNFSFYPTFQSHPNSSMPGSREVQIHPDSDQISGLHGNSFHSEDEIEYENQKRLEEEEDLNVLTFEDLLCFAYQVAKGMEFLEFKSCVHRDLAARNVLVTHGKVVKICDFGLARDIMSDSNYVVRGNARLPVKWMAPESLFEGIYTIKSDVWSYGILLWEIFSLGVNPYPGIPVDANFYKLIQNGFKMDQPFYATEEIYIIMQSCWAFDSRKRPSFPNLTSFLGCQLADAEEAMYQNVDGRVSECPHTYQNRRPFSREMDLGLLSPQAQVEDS

SET-2 [7] = experiment: Induction of apoptosis in human SET-2 cells assessed as necrotic cells at 1.6 uM incubated for 24 hrs by Annexin V/PI staining based flow cytometric analysis (reference value: 0.78%); format: functional
[8] = system: Tyrosine-protein kinase JAK2 (Homo sapiens), O60674 [V617F]; experiment: Inhibition of JAK2 V617F mutant in human SET-2 cells assessed as reduction in JAk2 phosphorylation after 2 hrs by Western blot analysis; format: cell-based; conditions: SET2, dose 1-1000 nM
Tyrosine-protein kinase JAK2 (Homo sapiens), O60674 [V617F], sequence (O60674 whole entry V617F): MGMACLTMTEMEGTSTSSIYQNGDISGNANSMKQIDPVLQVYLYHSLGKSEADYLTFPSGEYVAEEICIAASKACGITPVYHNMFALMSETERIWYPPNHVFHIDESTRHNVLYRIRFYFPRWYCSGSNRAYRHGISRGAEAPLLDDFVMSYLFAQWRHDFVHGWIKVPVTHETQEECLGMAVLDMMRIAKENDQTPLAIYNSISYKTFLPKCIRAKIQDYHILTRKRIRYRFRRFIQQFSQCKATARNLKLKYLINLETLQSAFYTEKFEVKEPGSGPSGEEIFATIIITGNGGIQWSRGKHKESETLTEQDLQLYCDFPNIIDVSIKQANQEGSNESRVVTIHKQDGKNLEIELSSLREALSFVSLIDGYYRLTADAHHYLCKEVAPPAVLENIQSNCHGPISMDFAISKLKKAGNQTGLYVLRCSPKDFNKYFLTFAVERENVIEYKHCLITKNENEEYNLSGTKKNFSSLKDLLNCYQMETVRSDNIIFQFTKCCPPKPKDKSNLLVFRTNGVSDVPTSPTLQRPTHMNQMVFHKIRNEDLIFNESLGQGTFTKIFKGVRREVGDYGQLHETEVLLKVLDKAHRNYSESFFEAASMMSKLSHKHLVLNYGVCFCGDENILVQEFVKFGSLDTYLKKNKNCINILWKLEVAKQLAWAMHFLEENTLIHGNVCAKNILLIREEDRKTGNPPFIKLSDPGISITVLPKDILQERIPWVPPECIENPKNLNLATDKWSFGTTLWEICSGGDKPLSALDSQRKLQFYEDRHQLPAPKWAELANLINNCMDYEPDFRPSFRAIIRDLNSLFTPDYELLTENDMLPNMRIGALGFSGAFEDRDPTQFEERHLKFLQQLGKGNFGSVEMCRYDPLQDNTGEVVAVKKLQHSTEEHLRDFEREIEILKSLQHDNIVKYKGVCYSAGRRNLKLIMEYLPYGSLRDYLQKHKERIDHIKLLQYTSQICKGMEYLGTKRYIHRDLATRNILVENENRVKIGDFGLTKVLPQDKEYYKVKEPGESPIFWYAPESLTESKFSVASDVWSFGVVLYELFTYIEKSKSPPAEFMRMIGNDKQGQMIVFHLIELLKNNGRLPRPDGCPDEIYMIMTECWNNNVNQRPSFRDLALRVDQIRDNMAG

[9] = system: Tyrosine-protein kinase JAK2 (Homo sapiens), O60674 [V617F]; experiment: Inhibition of JAK2 V617F mutant in human SET-2 cells assessed as reduction in STAT5 phosphorylation after 2 hrs by Western blot analysis; format: cell-based; conditions: SET2, dose 1-1000 nM
BaF3 [10] = experiment: Antitumor activity against mouse BAF3 cells harboring JAK2 V617F mutant implanted in Balb/c mouse assessed as decrease in liver weight at 60 mg/kg, po qd administered starting from day 4 to 20 and measured on day 25 relative to control; format: functional; set-up: scale not given: the % may be the effect or the level left; conditions: time 21 day
SET-2 [11] = experiment: Antitumor activity against human SET2 cells xenografted in NOD/SCID mouse assessed as tumor growth inhibition at 15 mg/kg, po qd administered for 16 days and measured every 2 days relative to control; format: functional; conditions: SET-2, po, 384 h, time 16 day, read-out: TGI
[12] = biological target: Receptor-type tyrosine-protein kinase FLT3 (Homo sapiens) (UniProt P36888); experiment: Inhibition of FLT3 in human SET2 cells assessed as decrease in AKT phosphorylation at 1 to 1000 nM after 2 hrs by Western blot analysis; format: cell-based; conditions: dose 1-1000 nM
Receptor-type tyrosine-protein kinase FLT3 (Homo sapiens), sequence (P36888 whole entry): as the sequence (P36888 whole entry, looked up, change not shown) above

Mus musculus = experiment: In vivo inhibition of JAK2 V617F mutant in mouse BAF3 cells xenografted Balb/c nude mouse assessed as decrease in STAT5 phosphorylation in spleen at 30 to 60 mg/kg, po qd administered starting from day 4 to 20 and measured on day 25 by Western blot analysis; format: functional, organism-based; conditions: dose 30-60 mg/kg, time 21.0 day
[13] = biological target: T1, Signal transducer and activator of transcription 1 (Mus musculus) (UniProt P42225); experiment: Inhibition of STAT1 phosphorylation in mouse BAF3 cells at 1000 nM after 2 hrs by Western blot analysis; format: cell-based
T1 sequence (whole entry): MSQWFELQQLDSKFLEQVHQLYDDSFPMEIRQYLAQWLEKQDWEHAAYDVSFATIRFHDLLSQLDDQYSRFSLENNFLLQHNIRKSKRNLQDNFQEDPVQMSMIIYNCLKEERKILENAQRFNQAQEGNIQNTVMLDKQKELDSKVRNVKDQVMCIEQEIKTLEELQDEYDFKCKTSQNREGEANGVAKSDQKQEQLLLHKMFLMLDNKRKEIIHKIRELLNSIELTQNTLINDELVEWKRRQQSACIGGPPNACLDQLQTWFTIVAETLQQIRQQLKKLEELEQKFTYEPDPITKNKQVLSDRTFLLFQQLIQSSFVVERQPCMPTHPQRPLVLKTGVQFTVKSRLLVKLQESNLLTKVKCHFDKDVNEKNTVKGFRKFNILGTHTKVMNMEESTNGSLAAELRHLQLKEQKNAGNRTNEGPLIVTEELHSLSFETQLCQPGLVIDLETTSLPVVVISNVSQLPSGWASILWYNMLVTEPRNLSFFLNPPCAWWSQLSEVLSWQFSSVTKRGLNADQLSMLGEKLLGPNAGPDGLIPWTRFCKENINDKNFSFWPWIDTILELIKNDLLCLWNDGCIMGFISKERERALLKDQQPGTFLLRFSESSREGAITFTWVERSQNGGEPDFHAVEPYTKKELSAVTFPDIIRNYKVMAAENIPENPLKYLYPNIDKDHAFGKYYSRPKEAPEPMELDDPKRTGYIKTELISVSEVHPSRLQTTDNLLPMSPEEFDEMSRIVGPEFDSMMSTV

SET-2 [14] = experiment: Induction of apoptosis in human SET-2 cells assessed as late apoptotic cells at 0.8 uM incubated for 24 hrs by Annexin V/PI staining based flow cytometric analysis (reference value: 1.52%); format: functional
SET-2 [15] = experiment: Induction of apoptosis in human SET-2 cells assessed as necrotic cells at 0.2 uM incubated for 24 hrs by Annexin V/PI staining based flow cytometric analysis (reference value: 0.78%); format: functional
[16] = Cmax in male Sprague-Dawley rat at 5 mg/kg, iv administered […] measured upto 24 hrs by LC/MS/MS analysis; format: ADME, organism-based; set-up: route intravenous, dose 5 mg/kg, time <=24; conditions: in vivo
[17] = Toxicity in NOD/SCID mouse xenografted with human SET2 cells assessed as animal survival at 15 mg/kg, po qd administered for 16 days and measured every 2 days; format: organism-based; conditions: in vivo, 384 h, time 16 day
[18] = AUC (0 to t) in Sprague-Dawley rat at 5 mg/kg, po administered via gavage measured upto 24 hrs by LC/MS/MS analysis; format: ADME, organism-based; set-up: route oral, dose 5 mg/kg, time <=24; conditions: in vivo
[19] = Apparent clearance in Sprague-Dawley rat at 5 mg/kg, po administered via gavage measured upto 24 hrs by LC/MS/MS analysis; format: ADME, organism-based; conditions: in vivo, read-out: CL(app) (converted)
[20] = biological target: Tyrosine-protein kinase JAK2 (Homo sapiens, UniProt O60674); experiment: Inhibition of recombinant human JAK2 (808 to end residues) KTFCGTPEYLAPEVRREPRILSEEEQEMFRDFDYIADWC as substrate measured after 40 mins in presence of [gamm33P]ATP by scintillation counting method
Tyrosine-protein kinase JAK2, sequence (O60674 whole entry): as the sequence (O60674 whole entry V617F) above, with F617V counted along it

SET-2 [21] = experiment: Induction of apoptosis in human SET-2 cells assessed as early apoptotic cells at 0.05 uM incubated for 24 hrs by Annexin V/PI staining based flow cytometric analysis (reference value: 1.47 %); format: functional
SET-2 [22] = experiment: Induction of apoptosis in human SET-2 cells assessed as live cells at 0.8 uM incubated for 24 hrs by Annexin V/PI staining based flow cytometric analysis (reference value: 96.23 %); format: functional

## Cc1cnc(Nc2ccc3c(c2)CCN(C(=O)/C=C/CN(C)C)C3)nc1-c1cnn(C(C)C)c1
[1]
  inhibition: Active
[2]
  half-life: 54.6 min
L02
  IC50: 7.22 µM
BaF3 [3]
  Activity: 44%
SET-2 [4]
  Activity: 3.36%
SET-2 [5]
  Activity: 27.3%
[6]
  Activity: 54%
SET-2 [7]
  Activity: 4.04%
[8]
  inhibition: Dose-dependent effect
[9]
  inhibition: Dose-dependent effect
BaF3 [10]
  Activity: 66.3%
SET-2 [11]
  inhibition in vivo at 15 mg/kg: 51.4%
[12]
  inhibition: inactive
Mus musculus
  inhibition: Active
[13]
  inhibition: inactive
SET-2 [14]
  Activity: 40.19%
SET-2 [15]
  Activity: 0.63%
[16]
  Cmax: 479 ng/mL
[17]
  Activity: Non-Toxic
[18]
  AUC(0-t) at 24 h: 254 ng·h/mL
[19]
  CL/F: 480 mL/min/kg
[20]
  IC50: 0.003 µM
SET-2 [21]
  Activity: 2.7%
SET-2 [22]
  Activity: 49.33%
